Experimental data from paper doi:10.1101/2020.12.17.423223v1 (biorxiv, 2020).

How the values were obtained:
Assay in all cases: two-electrode voltage clamp, Xenopus oocytes
Assay type in all cases: cell-based
Cel-AVR-14B = target: T1, Cel-AVR-14B (Caenorhabditis elegans, UniProt Q17369)
T1 construct: full-length, expressed singly (cRNA) in Xenopus laevis oocytes; homomeric pentameric GluCl; b70 prints CAA04170 for AVR-14B, which b73 gives to AVR-15B
T1 sequence (Q17369 22-430): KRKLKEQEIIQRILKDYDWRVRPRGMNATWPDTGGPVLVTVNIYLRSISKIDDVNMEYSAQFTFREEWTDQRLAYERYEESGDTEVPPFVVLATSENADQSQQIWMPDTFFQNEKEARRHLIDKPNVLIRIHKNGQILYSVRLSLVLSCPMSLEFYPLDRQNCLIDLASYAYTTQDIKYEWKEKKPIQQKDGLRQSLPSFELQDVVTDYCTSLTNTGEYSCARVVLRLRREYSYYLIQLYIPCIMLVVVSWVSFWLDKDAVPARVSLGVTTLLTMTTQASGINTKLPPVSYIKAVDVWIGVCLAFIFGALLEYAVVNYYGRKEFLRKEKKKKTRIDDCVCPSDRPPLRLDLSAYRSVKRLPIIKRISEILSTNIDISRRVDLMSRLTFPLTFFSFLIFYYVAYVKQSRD

Cel-AVR-14B/GLC-2 = target: T2, Cel-AVR-14B/GLC-2 (Caenorhabditis elegans, UniProt Q17328+Q17369)
T2 construct: full-length subunits co-expressed 1:1 (cRNA) in Xenopus laevis oocytes; heteromeric, pentameric GluCl, stoichiometry unknown; b70 prints CAA04170 for AVR-14B, which b73 gives to AVR-15B
T2 sequence (Q17369 22-430): T1 sequence (Q17369 22-430)
T2 sequence (Q17328 23-434): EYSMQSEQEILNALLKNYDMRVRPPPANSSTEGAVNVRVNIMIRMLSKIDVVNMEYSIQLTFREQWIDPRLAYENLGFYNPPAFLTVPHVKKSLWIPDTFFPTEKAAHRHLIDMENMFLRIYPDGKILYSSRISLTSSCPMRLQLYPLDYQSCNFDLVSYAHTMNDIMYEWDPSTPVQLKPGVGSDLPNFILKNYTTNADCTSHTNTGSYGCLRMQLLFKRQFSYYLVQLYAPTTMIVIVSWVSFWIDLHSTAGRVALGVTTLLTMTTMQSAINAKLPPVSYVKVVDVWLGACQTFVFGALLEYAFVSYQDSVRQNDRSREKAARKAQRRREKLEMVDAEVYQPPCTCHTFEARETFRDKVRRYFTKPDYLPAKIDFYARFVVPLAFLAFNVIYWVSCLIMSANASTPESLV

Pun-GLC-2/GLC-3 = target: T3, Pun-GLC-2/GLC-3 (Parascaris univalens, UniProt A0A894K4V1+A0A894KE58)
T3 construct: full-length subunits co-expressed 1:1 (cRNA) in Xenopus laevis oocytes; heteromeric, pentameric GluCl, stoichiometry unknown
T3 sequence (A0A894KE58 21-448): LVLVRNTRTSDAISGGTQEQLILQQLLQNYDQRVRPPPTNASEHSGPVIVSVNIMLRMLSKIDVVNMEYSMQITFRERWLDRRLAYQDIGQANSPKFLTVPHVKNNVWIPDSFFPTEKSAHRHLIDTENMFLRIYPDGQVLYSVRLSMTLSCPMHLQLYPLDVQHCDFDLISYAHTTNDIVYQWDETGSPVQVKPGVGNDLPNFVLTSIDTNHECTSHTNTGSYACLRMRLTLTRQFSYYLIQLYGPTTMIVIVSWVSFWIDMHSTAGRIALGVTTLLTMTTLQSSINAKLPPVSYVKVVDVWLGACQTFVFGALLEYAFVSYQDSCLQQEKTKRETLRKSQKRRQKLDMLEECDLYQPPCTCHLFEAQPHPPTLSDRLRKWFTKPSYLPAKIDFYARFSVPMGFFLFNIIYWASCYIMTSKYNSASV
T3 sequence (A0A894K4V1 25-485): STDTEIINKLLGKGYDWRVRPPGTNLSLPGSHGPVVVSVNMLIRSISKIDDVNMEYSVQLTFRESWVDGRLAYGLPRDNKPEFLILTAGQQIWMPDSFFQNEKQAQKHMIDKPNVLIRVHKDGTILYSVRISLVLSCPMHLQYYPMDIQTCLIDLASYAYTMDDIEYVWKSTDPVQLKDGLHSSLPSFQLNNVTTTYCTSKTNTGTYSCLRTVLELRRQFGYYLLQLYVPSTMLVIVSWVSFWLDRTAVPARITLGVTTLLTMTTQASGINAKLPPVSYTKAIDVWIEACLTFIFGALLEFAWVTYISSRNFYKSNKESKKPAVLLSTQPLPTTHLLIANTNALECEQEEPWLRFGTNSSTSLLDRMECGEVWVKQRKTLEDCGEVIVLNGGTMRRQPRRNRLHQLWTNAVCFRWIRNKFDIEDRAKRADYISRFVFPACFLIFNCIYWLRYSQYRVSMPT

Cel-GLC-2 = target: T4, Cel-GLC-2 (Caenorhabditis elegans, UniProt Q17328)
T4 construct: full-length, expressed singly (cRNA) in Xenopus laevis oocytes; homomeric pentameric GluCl
T4 sequence (Q17328 23-434): T2 sequence (Q17328 23-434)

Pun-AVR-14B/GLC-2 = target: T5, Pun-AVR-14B/GLC-2 (Parascaris univalens, UniProt A0A894K7G1+A0A894KE58)
T5 construct: full-length subunits co-expressed 1:1 (cRNA) in Xenopus laevis oocytes; heteromeric, pentameric GluCl, stoichiometry unknown
T5 sequence (A0A894K7G1 19-428): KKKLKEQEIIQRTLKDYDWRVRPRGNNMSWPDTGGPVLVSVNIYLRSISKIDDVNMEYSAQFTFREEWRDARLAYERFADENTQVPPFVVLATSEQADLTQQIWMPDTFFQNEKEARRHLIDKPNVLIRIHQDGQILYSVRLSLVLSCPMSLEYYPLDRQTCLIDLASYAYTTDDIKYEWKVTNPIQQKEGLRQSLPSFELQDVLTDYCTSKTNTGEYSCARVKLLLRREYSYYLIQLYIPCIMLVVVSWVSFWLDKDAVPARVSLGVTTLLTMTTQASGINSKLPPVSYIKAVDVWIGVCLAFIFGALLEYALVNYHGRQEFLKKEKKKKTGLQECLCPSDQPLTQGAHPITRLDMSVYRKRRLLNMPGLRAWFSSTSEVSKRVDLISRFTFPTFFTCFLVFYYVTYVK
T5 sequence (A0A894KE58 21-448): T3 sequence (A0A894KE58 21-448)

Pun-GLC-3 = target: T6, Pun-GLC-3 (Parascaris univalens, UniProt A0A894K4V1)
T6 construct: full-length, expressed singly (cRNA) in Xenopus laevis oocytes; homomeric pentameric GluCl
T6 sequence (A0A894K4V1 25-485): T3 sequence (A0A894K4V1 25-485)

Cel-GLC-2/GLC-3 = target: T7, Cel-GLC-2/GLC-3 (Caenorhabditis elegans, UniProt G5EEZ3+Q17328)
T7 construct: full-length subunits co-expressed 1:1 (cRNA) in Xenopus laevis oocytes; heteromeric, pentameric GluCl, stoichiometry unknown
T7 sequence (Q17328 23-434): T2 sequence (Q17328 23-434)
T7 sequence (G5EEZ3 23-484): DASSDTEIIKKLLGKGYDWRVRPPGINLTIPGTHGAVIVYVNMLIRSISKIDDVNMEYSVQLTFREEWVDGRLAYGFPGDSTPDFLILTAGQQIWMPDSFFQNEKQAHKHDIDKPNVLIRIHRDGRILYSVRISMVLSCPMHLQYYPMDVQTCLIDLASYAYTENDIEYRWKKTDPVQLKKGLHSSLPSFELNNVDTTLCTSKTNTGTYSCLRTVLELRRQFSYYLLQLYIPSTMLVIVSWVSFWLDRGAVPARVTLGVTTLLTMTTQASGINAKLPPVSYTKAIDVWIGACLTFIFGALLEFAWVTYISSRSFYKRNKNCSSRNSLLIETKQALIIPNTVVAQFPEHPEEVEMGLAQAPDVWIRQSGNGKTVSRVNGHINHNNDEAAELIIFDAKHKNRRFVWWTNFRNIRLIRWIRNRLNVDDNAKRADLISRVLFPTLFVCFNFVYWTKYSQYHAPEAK

N[C@@H](CCC(=O)O)C(=O)O [glutamate]
EC50 (Cel-AVR-14B): 112 ± 13 µM
EC50 (Cel-AVR-14B/GLC-2): 20.5 ± 1.3 µM
EC50 (Pun-GLC-2/GLC-3): 120 ± 5.7 µM
EC50 (Cel-GLC-2): 215 ± 13.1 µM
EC50 (Pun-AVR-14B/GLC-2): 13.6 ± 1.6 µM
EC50 (Pun-GLC-3): 1480 ± 111 µM
EC50 (Cel-GLC-2/GLC-3): 46.8 ± 3.7 µM
